Where two headings read alike, the source gives them in different places. Ends that are not written are not given here.
What was measured:
[1] = Water solubility test (turbid appearance of 10 mg peptide in 10 ml de-mineralised water); conditions: water at 20 C and pH 6.5
Procedure: (§1) Peptides for use in food products according to the invention are water-insoluble in water at 20°C and a pH of 6.5. This can for example be evidenced by mixing 10 mg of the peptide into 10 ml of de-mineralised water at 20°C and pH 6.5, and stirring. A (measurable) turbid appearance of the solution after stirring is indicative of the fact that the peptide is water-insoluble.

[2] = pH 6.5
Procedure: as §1

Peptide category (substantially water-insoluble or soluble) [1]	Peptide category (substantially water-insoluble or soluble) [2]	Compound
Soluble peptides	–	VEWEME [VEWEME, reference compound]
Soluble peptides	–	DDDDDD [DDDDDD, reference compound]
Soluble peptides	–	EAEWEY [EAEWEY, reference compound]
Insoluble peptides	–	GGGGGGGG [GGGGGGGG]
Soluble peptides	–	GSGGSG [GSGGSG]
–	Insoluble peptides	NCC(=O)NCC(=O)NCC(=O)NCC(=O)NCC(=O)NCC(=O)O [GGGGGG]

Compound	Peptide category (substantially water-insoluble or soluble) [1]	Peptide category (substantially water-insoluble or soluble) [2]
YYYYYY [YYYYYY]	Insoluble peptides	–
